Test system: 186277-243-T-J2-PDC complex spheroid growth, % test/control
Assay: Anticancer human tumor 186277-243-T-J2-PDC patient-derived colon adenocarcinoma cell line growth inhibition [Asc]
Settings: for IC50: curve of first compound; for viability, T/C: stronger effect = lower value
Protocol: Multicellular complex tumor spheroid response to apoptosis pathway targeting inhibitors Alrizomadlin, Pelcitoclax, and Dasminapant in combination with a variety of drugs and investigational agents in selected tumor cell lines
The MDM2 inhibitor alrizomadlin, the Bcl-2/Bcl-xL inhibitor pelcitoclax, and the IAPs inhibitor dasminapant were evaluated both individually and in combination with standard of care and investigational anticancer small molecules within a complex spheroid model of solid tumors. . Complex spheroids include a stromal component modeled by human endothelial cells (HUVEC) and fibroblasts modeled by human mesenchymal stem cells (MSCs). The concentration ranges selected for each drug and investigational agent were based upon clinically achievable concentrations if the clinical Cmax of the agent was known.
Compounds. The drugs and investigational agents: alrizomadlin (APG-115; NSC831270), pelcitoclax (APG-1252; NSC835773), dasminapant (APG-1387;NSC834197), TAK-243 (NSC785004), copanlisib (NSC809693), olaparib (NSC753686), talazoparib (NSC767125), cobimetinib (NSC 768068), eltanexor (KPT-8602, NSC 794443), abemaciclib (NSC 768073), sotorasib (NSC818433), adagrasib (NSC 831453), MRTX-1133 (NSC 836407), Iadademestat (ORY1001, NSC 806812), and RMC-4630 (NSC839698), were obtained from the NCI Developmental Therapeutics Program Chemical Repository. The FDA-approved anticancer drug set is available from the Developmental Therapeutics Program at https://dtp.cancer.gov/organization/dscb/obtaining/available plates.htm. […] The stock solutions were prepared in dimethyl sulfoxide (DMSO, Sigma-Aldrich, St. Louis, MO, cat. D2650) at 800-fold the tested concentration and stored at -70 degrees C prior to their use. All drugs and investigational agents were tested over a range starting from a high concentration at or near the clinical Cmax and decreasing in half-log increments. If the clinical Cmax for an agent had not been determined, the highest concentration tested was 10 microM.
The patient-derived cancer (PDC) cell lines include five colon adenocarcinomas: 186277-243-T-J2-PDC, 616215-338-R-J1-PDC, 439559-082-T-J2-PDC, 463943-066-T-J2-PDC, and 519858-162-T-J1-PDC; three pancreatic carcinomas: 323965-272-R-J2-PDC, 521955-158-R6-J3-PDC, and 521955-158-R2-J5-PDC; two uterine sarcomas: 327498-152-R-J2-PDC and 993429-296-R-J1-PDC; two rhabdomyosarcomas: 755483-174-R-J1-PDC and 772245-204-R-J1-PDC; two soft tissue sarcomas: 126254-015-R-J1-PDC and 494315-158-R-J1-PDC; two malignant fibrous histiocytomas: 317291-083-R-J1-PDC and 596521-263-R-J1-PDC; two breast carcinomas: 171881-019-R-J1-PDC and 885512-296-R-J2-PDC; and one ovarian carcinoma: 6556581-035-R-J-PDC were obtained from the NCI PDMR, (https://pdmr.cancer.gov). The established cell lines HSSY-2 synovial sarcoma (RRID:CVCL 8719), SYO-1 synovial sarcoma (RRID:CVCL_7146), MPNST malignant peripheral neural sheath tumor were obtained from the Sloan Kettering Institute. The following established cell lines were purchased from the American Type Culture Collection (ATCC, Manassas, VA), Sor the received from the NCI repository:, PANC-1 pancreatic carcinoma (CRL-1469, RRID:CVCL_0480), OVCAR-5 ovarian carcinoma (RRID:CVCL_1628), OVCAR-8 ovarian carcinoma (RRID:CVCL_1629), , MCF-7 breast carcinoma (CRL-12584, RRID:CVCL_0031), MDA-MB-231 breast carcinoma (CRL-12532, RRID:CVCL_0062), NCI-H1876 small cell lung carcinoma (CRL-5902, RRID:CVCL_1503), NCI-H510A small cell lung carcinoma (HTB-184, RRID:CVCL_1565), NCI-H1417 (CRL-5869, RRID:CVCL_1469), and NCI-H196 small cell lung carcinoma (CRL-5823, RRID:CVCL_1509). Dr. Peter Houghton (Greehey Children's Cancer Research Institute, University of Texas Health Science Center, San Antonio, TX) provided Rh-18 rhabdomyosarcoma (RRID:CVCL_1659). Pooled donor human umbilical vein endothelial cells (HUVEC, Lonza, cat. CC-2519) and human mesenchymal stem cells (hMSC, Lonza, cat. PT-2501) were purchased from Lonza (Walkersville, MD).
Cell Culture. […]
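Further: spheroids exposed to agents for 7 days.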
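Wherever viability, T/C is given: 100% = DMSO vehicle control wells.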

`CCN1CCN(Cc2ccc(Nc3ncc(F)c(-c4cc(F)c5nc(C)n(C(C)C)c5c4)n3)nc2)CC1` + CCN1C(C(=O)NC23CCC(C(=O)O)(CC2)CC3)C(c2cccc(Cl)c2F)C2(C(=O)Nc3cc(Cl)ccc32)C12CCCCC2 was tested, and the IC50 (second compound 0.03 µM) was over 1000 nM, the IC50 (second compound 0.0949 µM) was over 1000 nM and the IC50 (second compound 0.3 µM) was 704 nM. The IC50 (second compound 0.949 µM) was 24.6 nM, the IC50 (second compound 3 µM) was under 3.16 nM and the viability, T/C (second compound 0.03 µM, first compound 0.00316 µM) was 114%. For the same compound, the viability, T/C (second compound 0.03 µM, first compound 0.01 µM) was 130%, the viability, T/C (second compound 0.03 µM, first compound 0.0316 µM) was 112% and the viability, T/C (second compound 0.03 µM, first compound 0.1 µM) was 97%. The viability, T/C (second compound 0.03 µM, first compound 0.316 µM) was 99.6%, the viability, T/C (second compound 0.03 µM, first compound 1 µM) was 85.2% and the viability, T/C (second compound 0.0949 µM, first compound 0.00316 µM) was 107%. It also gave a viability, T/C (second compound 0.0949 µM, first compound 0.01 µM) of 99.8%, a viability, T/C (second compound 0.0949 µM, first compound 0.0316 µM) of 89.4% and a viability, T/C (second compound 0.0949 µM, first compound 0.1 µM) of 75%. It also gave a viability, T/C (second compound 0.0949 µM, first compound 0.316 µM) of 82.3%, a viability, T/C (second compound 0.0949 µM, first compound 1 µM) of 64.7% and a viability, T/C (second compound 0.3 µM, first compound 0.00316 µM) of 68.1%. For the same compound, the viability, T/C (second compound 0.3 µM, first compound 0.01 µM) was 74.7%, the viability, T/C (second compound 0.3 µM, first compound 0.0316 µM) was 65.8% and the viability, T/C (second compound 0.3 µM, first compound 0.1 µM) was 61.6%. For the same compound, the viability, T/C (second compound 0.3 µM, first compound 0.316 µM) was 64.2%, the viability, T/C (second compound 0.3 µM, first compound 1 µM) was 44.6% and the viability, T/C (second compound 0.949 µM, first compound 0.00316 µM) was 49.7%. It also gave a viability, T/C (second compound 0.949 µM, first compound 0.01 µM) of 52.6%, a viability, T/C (second compound 0.949 µM, first compound 0.0316 µM) of 50.4% and a viability, T/C (second compound 0.949 µM, first compound 0.1 µM) of 44.3%. For the same compound, the viability, T/C (second compound 0.949 µM, first compound 0.316 µM) was 39.5%, the viability, T/C (second compound 0.949 µM, first compound 1 µM) was 34.7% and the viability, T/C (second compound 3 µM, first compound 0.00316 µM) was 29.1%. It also gave a viability, T/C (second compound 3 µM, first compound 0.01 µM) of 31.5%, a viability, T/C (second compound 3 µM, first compound 0.0316 µM) of 26.8% and a viability, T/C (second compound 3 µM, first compound 0.1 µM) of 25.7%. The viability, T/C (second compound 3 µM, first compound 0.316 µM) was 23.2% and the viability, T/C (second compound 3 µM, first compound 1 µM) was 24.6%.
For `C=CC(=O)N1CCN(c2nc(=O)n(-c3c(C)ccnc3C(C)C)c3nc(-c4c(O)cccc4F)c(F)cc23)C(C)C1` (stereo not given) + CNC(C)C(=O)NC1CN(S(=O)(=O)c2cccc(S(=O)(=O)N3CCC4CCC(C(=O)NC(c5ccccc5)c5ccccc5)N4C(=O)C(NC(=O)C(C)NC)C3)c2)CCC2CCC(C(=O)NC(c3ccccc3)c3ccccc3)N2C1=O, the IC50 (second compound 0.01 µM) was over 10000 nM, the IC50 (second compound 0.0316 µM) was over 10000 nM and the IC50 (second compound 0.1 µM) was over 10000 nM. For the same compound, the IC50 (second compound 0.316 µM) was over 10000 nM, the IC50 (second compound 1 µM) was over 10000 nM and the viability, T/C (second compound 0.01 µM, first compound 0.0316 µM) was 102%. The viability, T/C (second compound 0.01 µM, first compound 0.1 µM) was 114%, the viability, T/C (second compound 0.01 µM, first compound 0.316 µM) was 117% and the viability, T/C (second compound 0.01 µM, first compound 1 µM) was 100%. The viability, T/C (second compound 0.01 µM, first compound 3.16 µM) was 112%, the viability, T/C (second compound 0.01 µM, first compound 10 µM) was 104% and the viability, T/C (second compound 0.0316 µM, first compound 0.0316 µM) was 118%. It also gave a viability, T/C (second compound 0.0316 µM, first compound 0.1 µM) of 104%, a viability, T/C (second compound 0.0316 µM, first compound 0.316 µM) of 122% and a viability, T/C (second compound 0.0316 µM, first compound 1 µM) of 116%. It also gave a viability, T/C (second compound 0.0316 µM, first compound 3.16 µM) of 100%, a viability, T/C (second compound 0.0316 µM, first compound 10 µM) of 108% and a viability, T/C (second compound 0.1 µM, first compound 0.0316 µM) of 124%. For the same compound, the viability, T/C (second compound 0.1 µM, first compound 0.1 µM) was 108%, the viability, T/C (second compound 0.1 µM, first compound 0.316 µM) was 124% and the viability, T/C (second compound 0.1 µM, first compound 1 µM) was 114%. It also gave a viability, T/C (second compound 0.1 µM, first compound 3.16 µM) of 122%, a viability, T/C (second compound 0.1 µM, first compound 10 µM) of 113% and a viability, T/C (second compound 0.316 µM, first compound 0.0316 µM) of 124%. The viability, T/C (second compound 0.316 µM, first compound 0.1 µM) was 118%, the viability, T/C (second compound 0.316 µM, first compound 0.316 µM) was 120% and the viability, T/C (second compound 0.316 µM, first compound 1 µM) was 130%. For the same compound, the viability, T/C (second compound 0.316 µM, first compound 3.16 µM) was 112%, the viability, T/C (second compound 0.316 µM, first compound 10 µM) was 110% and the viability, T/C (second compound 1 µM, first compound 0.0316 µM) was 112%. It also gave a viability, T/C (second compound 1 µM, first compound 0.1 µM) of 124%, a viability, T/C (second compound 1 µM, first compound 0.316 µM) of 109% and a viability, T/C (second compound 1 µM, first compound 1 µM) of 106%. For the same compound, the viability, T/C (second compound 1 µM, first compound 3.16 µM) was 127% and the viability, T/C (second compound 1 µM, first compound 10 µM) was 118%.
